The text below walks through data of patent publication US20140377265A1, “ANTICOAGULANT ANTIDOTES” (BOEHRINGER INGELHEIM INTERNATIONAL GMBH, priority 2011, published 2014).

The test system of experiment [1] is activated partial thromboplastin time. The settings on record: cited from earlier work.
For experiment [2], the system named is thrombin clotting time in human plasma. Nature of the experiment: Thrombin clotting time assay, dabigatran standard curve in human plasma. The format is biochemical. Here is the method: Briefly human plasma is obtained by taking whole blood into 3.13% sodium citrate. This is then centrifuged to obtain platelet free plasma and transferred to a separate tube and frozen until required on the day of the assay. Plasma is thawed at 37° C. on the day of the assay.
The thrombin clotting time is performed as follows. First thrombin is diluted to manufacturer's specification (3 IU/mL thrombin) in the buffer provided (Dade Behring Test kit) and prewarmed to 37° C. It is used within 2 hrs of being prepared. All assays were performed on a commercially available CL4 clotting machine (Behnk Electronics, Norderstadt, Germany). Fifty μL of plasma is pipetted into provided cuvettes with a magnetic stirrer and allowed to stir for 2 min in the well preheated to 37° C. in the CL4 machine. At this point 100 μL of the thrombin solution is added and the time required for the plasma sample to clot is recorded automatically by the CL4.

The structures appear in SMILES notation.

Regarding `Cn1c(CNc2ccc(C(=N)N)cc2)nc2cc(C(=O)N(CCC(=O)OC3OC(C(=O)O)C(O)C(O)C3O)c3ccccn3)ccc21` (stereo not shown) [1-O-acylglucuronide], in experiment [1], the “prolongation of the activated partial thromboplastin time compared with dabigatran” value is on record as “equipotent prolongation”.
`Cn1c(CNc2ccc(C(=N)N)cc2)nc2cc(C(=O)N(CCC(=O)O)c3ccccn3)ccc21` [dabigatran, N-[2-(4-Amidinophenylaminomethyl)-1-methyl-1H-benzimidazol-5-ylcarbonyl]-N-(2-pyridyl)-beta-alanine] returned a thrombin clotting time in experiment [2] (200 nM dabigatran preincubated with human plasma) of 51 s. For the same molecule, the “elevation in clotting time over baseline” value in experiment [2] (200 nM dabigatran, human plasma) is reported as roughly 5 fold. The “increase in clotting time over baseline” value in experiment [2] (500 nM dabigatran, human plasma) is roughly 10 fold.
